The results in this text go back to ChEMBL document CHEMBL2021868, “Synthesis and evaluation of [¹⁸F]fluororasagiline, a novel positron emission tomography (PET) radioligand for monoamine oxidase B (MAO-B)” (Bioorg Med Chem, 2012).

For data set [1], the species on record is Homo sapiens. The data set is described as follows: Selectivity ratio of IC50 for human recombinant MAO-A to IC50 for human recombinant MAO-B.
The target in data set [2] is T1, Amine oxidase [flavin-containing] B (Homo sapiens, UniProt P27338).
T1 sequence (P27338 whole entry): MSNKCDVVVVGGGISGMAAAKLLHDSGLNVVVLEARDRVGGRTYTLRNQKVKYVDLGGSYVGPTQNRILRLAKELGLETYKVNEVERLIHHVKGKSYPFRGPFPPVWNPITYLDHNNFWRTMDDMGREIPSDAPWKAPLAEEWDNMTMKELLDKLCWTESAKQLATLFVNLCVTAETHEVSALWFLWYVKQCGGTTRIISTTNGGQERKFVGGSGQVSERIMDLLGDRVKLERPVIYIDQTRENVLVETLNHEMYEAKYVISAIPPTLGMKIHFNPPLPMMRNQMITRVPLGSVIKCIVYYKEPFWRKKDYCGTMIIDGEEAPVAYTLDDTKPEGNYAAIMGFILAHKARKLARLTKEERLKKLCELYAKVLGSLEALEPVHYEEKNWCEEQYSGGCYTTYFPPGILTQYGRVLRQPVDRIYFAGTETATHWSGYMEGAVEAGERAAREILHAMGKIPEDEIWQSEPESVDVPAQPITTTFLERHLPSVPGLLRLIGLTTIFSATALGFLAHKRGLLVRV
The data set can be described thus: Binding affinity to MAO-B in human brain at 4 MBq/200 ml after 90 mins by autoradiography analysis in presence of 10 uM L-deprenyl. To be noted: 1.5 h.

Data set [3] addresses T1, Amine oxidase [flavin-containing] B. The data set can be described thus: Binding affinity to MAO-B in human brain hippocampus region at 4 MBq/200 ml after 90 mins by autoradiography analysis. The class given is tissue-based. To be noted: 1.5 h.
The target is the same in data set [4]. The data set is described as follows: Binding affinity to MAO-B in human brain at 4 MBq/200 ml after 90 mins by autoradiography analysis in presence of 10 uM pirlindole. As to conditions: 1.5 h; call rule not given here.
For data set [5], the target named is T2, Amine oxidase [flavin-containing] A (Homo sapiens, UniProt P21397).
T2 sequence (P21397 whole entry): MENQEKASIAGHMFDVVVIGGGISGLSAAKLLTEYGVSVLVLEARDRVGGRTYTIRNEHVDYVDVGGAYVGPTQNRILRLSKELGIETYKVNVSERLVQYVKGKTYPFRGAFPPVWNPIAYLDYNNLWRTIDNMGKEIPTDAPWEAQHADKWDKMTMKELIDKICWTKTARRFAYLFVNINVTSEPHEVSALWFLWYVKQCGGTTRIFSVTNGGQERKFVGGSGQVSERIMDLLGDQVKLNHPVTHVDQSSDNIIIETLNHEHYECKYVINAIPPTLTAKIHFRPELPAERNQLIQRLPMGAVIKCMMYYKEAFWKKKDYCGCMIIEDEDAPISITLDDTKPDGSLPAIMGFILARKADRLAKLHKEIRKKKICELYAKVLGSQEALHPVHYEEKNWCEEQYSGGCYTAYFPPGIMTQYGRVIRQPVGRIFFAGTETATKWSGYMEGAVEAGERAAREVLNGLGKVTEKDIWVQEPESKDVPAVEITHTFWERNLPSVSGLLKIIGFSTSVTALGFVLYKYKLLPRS
The data set can be described thus: Inhibition of human recombinant MAO-A expressed in insect cells assessed as kynuramine hydrobromide oxidation after 20 mins by spectrophotometric analysis.

For data set [6], the target named is T1, Amine oxidase [flavin-containing] B. The data set is described as follows: Binding affinity to MAO-B in human brain at 4 MBq/200 ml after 90 mins by autoradiography analysis in presence of 10 uM rasagiline. To be noted: 1.5 h.
Data set [7] has as its system Plasma. The data set is described as follows: Metabolic stability in cynomolgus monkey plasma assessed as radioactivity remaining at 163 Mbq, iv measured after 120 mins by HPLC analysis. As to conditions: in vivo, 2 h. In kind it is ADME, organism-based, Macaca fascicularis.
Data set [8] is described as follows: Chemical stability of the compound in PBS assessed as compound remaining at pH 7.4 after 180 mins. The class given is physicochemical. To be noted: read-out: Stability.
Data set [9] deals with Plasma. The data set is described as follows: Metabolic stability in cynomolgus monkey plasma assessed as radioactivity remaining at 163 Mbq, iv measured after 45 mins by HPLC analysis. The class given is ADME, organism-based, Macaca fascicularis. As to conditions: in vivo, 0.75 h.
Data set [10] is described as follows: Drug uptake in cynomolgus monkey striatum at 163 MBq, iv measured up to 120 mins. In kind it is ADME, organism-based, Macaca fascicularis. To be noted: in vivo, 2 h.
Data set [11] deals with Brain. The data set is described as follows: Drug uptake in cynomolgus monkey brain at 163 MBq, iv after 4 mins. In kind it is ADME, organism-based, Macaca fascicularis. As to conditions: in vivo.
The nature of data set [12]: Drug uptake in cynomolgus monkey cortex at 163 MBq, iv measured up to 120 mins. As to conditions: in vivo, 2 h. The class given is ADME, organism-based, Macaca fascicularis.
In data set [13] the target is T1, Amine oxidase [flavin-containing] B. The data set can be described thus: Inhibition of human recombinant MAO-B expressed in insect cells assessed as kynuramine hydrobromide oxidation after 20 mins by spectrophotometric analysis. The class given is cell-based.
Data set [14] deals with Plasma. The data set can be described thus: Drug metabolism in cynomolgus monkey plasma assessed as [18F]b metabolite retention time at 163 Mbq, iv measured by HPLC analysis. The class given is ADME, organism-based, Macaca fascicularis. As to conditions: in vivo.
The test system of data set [15] is Plasma. The data set can be described thus: Drug metabolism in cynomolgus monkey plasma assessed as formation of [18F]fluoroaminoindan metabolite at 163 Mbq, iv by HPLC analysis in presence of non-radioactive compound. The class given is ADME, organism-based, Macaca fascicularis. To be noted: in vivo.
A short description of data set [16]: Drug uptake in cynomolgus monkey cerebellum at 163 MBq, iv measured up to 120 mins. As to conditions: in vivo, 2 h. In kind it is ADME, organism-based, Macaca fascicularis.
The subject of data set [17] is Brain. The data set can be described thus: Drug uptake in cynomolgus monkey brain at 163 MBq, iv measured after wash out. In kind it is ADME, organism-based, Macaca fascicularis. To be noted: in vivo.
In data set [18] the target is T1, Amine oxidase [flavin-containing] B. The data set can be described thus: Binding affinity to MAO-B in human brain thalamus region at 4 MBq/200 ml after 90 mins by autoradiography analysis. The class given is tissue-based. As to conditions: 1.5 h.
The target is the same in data set [19]. The data set is described as follows: Binding affinity to MAO-B in human brain putamen region at 4 MBq/200 ml after 90 mins by autoradiography analysis. To be noted: 1.5 h.
Data set [20] has as its system Plasma. The data set can be described thus: Drug metabolism in cynomolgus monkey plasma assessed as [18F]a metabolite retention time at 163 Mbq, iv measured by HPLC analysis. The class given is ADME, organism-based, Macaca fascicularis. As to conditions: in vivo.
Data set [21] concerns Plasma. The data set is described as follows: Drug metabolism in cynomolgus monkey plasma assessed as [18F]fluoroaminoindan metabolite retention time at 163 Mbq, iv measured by HPLC analysis. The class given is ADME, organism-based, Macaca fascicularis. To be noted: in vivo.
Data set [22] deals with Thalamus. The data set can be described thus: Drug uptake in cynomolgus monkey thalamus at 163 MBq, iv measured up to 120 mins. The class given is ADME, organism-based, Macaca fascicularis. As to conditions: in vivo, 2 h.
Data set [23] addresses T1, Amine oxidase [flavin-containing] B. The data set is described as follows: Binding affinity to MAO-B in human brain external globus pallidus region at 4 MBq/200 ml after 90 mins by autoradiography analysis. In kind it is tissue-based. As to conditions: 1.5 h.
Data set [24] shares this target. The data set can be described thus: Binding affinity to MAO-B in human brain caudate nucleus region at 4 MBq/200 ml after 90 mins by autoradiography analysis. To be noted: 1.5 h.

Usually IC50 stands for the concentration needed to halve the response being measured.

The structures appear in SMILES notation.

With `C#CCN[C@H]1c2ccccc2C[C@@H]1F`, in data set [1], the Ratio IC50 amounted to 84.
With `C#CCN[C@H]1c2ccccc2C[C@@H]1[18F]` [[18F]FLUORORASAGILINE], the Activity result is “Not Active” in [2]; “Active” in data set [3]; “Active” in data set [4]; “Not Active” in data set [6]; “Active” in data set [18]; “Active” in data set [19]. The result in [23] and in data set [24] was Active. Moreover, the IC50 was determined as 2300 nM in data set [5] and 27 nM in [13]. Also, the Stability in [7] was found to be 20%; in data set [9], 50%. Besides, in data set [8], the remaining at 3 h was more than 97%. For the same compound, the Drug uptake entry in data set [10] was “Active”; in data set [12], “Not Active”; in data set [16], “Not Active”; in data set [17], “Active”; in data set [22], “Active”. Moreover, in data set [11], the SUV was 250%. Also, the Time was 9.2 min in data set [14], 2.7 min in data set [20] and 4.6 min in data set [21]. In data set [15], the Drug metabolism result was “Active”.
